The text below walks through data of ChEMBL document CHEMBL4190214, “Identification of BMI1 Promoter Inhibitors from Beaumontia murtonii and Eugenia operculata” (J Nat Prod, 2017).

Molecules are shown by their SMILES.

The subject of assay [1] is Huh-7. Put plainly: Inhibition of self-renewal of human HuH7 cells assessed as reduction in EpCAM positive fraction at 50 uM after 20 mins by propidium iodide staining-based flow cytometric analysis. The assay is classed as functional. To be noted: Huh-7, 20 min. A general note: In flow cytometry, cells or beads pass a laser one at a time.
The nature of assay [2]: Inhibition of BMI1 promoter (unknown origin) expressed in HEK293T cells after 24 hrs by luciferase reporter gene assay. The assay is classed as cell-based. Particulars: HEK-293T. Background: A reporter such as luciferase makes a cellular process visible.
The next assay is filed under the species Homo sapiens. Put plainly: Inhibition of BMI1 promoter in human HCT116 cells assessed as decrease in BMI1 protein expression levels after 24 hrs by Western blot analysis. The assay is classed as cell-based.
The test system of a further assay is DU-145. Put plainly: Cytotoxicity against human DU145 cells after 24 hrs by fluorescein diacetate staining-based fluorescence assay. Format: functional, cell-based. To be noted: DU-145, 24 h.
Another assay deals with HCT-116. Put plainly: Cytotoxicity against human HCT116 cells after 24 hrs by fluorescein diacetate staining-based fluorescence assay. Format: functional, cell-based. Particulars: HCT-116, 24 h.
The test system of the next assay is HEK293. Put plainly: Cytotoxicity against HEK293 cells after 24 hrs by fluorescein diacetate staining-based fluorescence assay. Format: cell-based. Particulars: Homo sapiens, HEK293, 24 h.
Assay [3] has as its system Huh-7. Put plainly: Inhibition of self-renewal capacity of human EpCAM-positive HuH7 cells assessed as reduction in sphere formation after 6 days. The assay is classed as functional, cell-based.
The test system of assay [4] is Huh-7. Put plainly: Inhibition of self-renewal of human HuH7 cells assessed as EpCAM positive fraction at 0.5 uM after 20 mins by propidium iodide staining-based flow cytometric analysis (reference value: 91.2 %). Format: functional. On the set-up: scale not given: the % may be the effect or the level left.
For assay [5], the system named is Huh-7. Put plainly: Inhibition of self-renewal of human HuH7 cells assessed as EpCAM positive fraction at 5 uM after 20 mins by propidium iodide staining-based flow cytometric analysis (reference value: 91.2 %). Format: functional. The arrangement: scale not given: the % may be the effect or the level left.
In assay [6] the test system is Huh-7. Put plainly: Inhibition of self-renewal of human HuH7 cells assessed as EpCAM negative fraction at 0.5 uM after 20 mins by propidium iodide staining-based flow cytometric analysis (reference value: 8.8 %). Format: functional. On the set-up: scale not given: the % may be the effect or the level left.
The subject of assay [7] is Huh-7. Put plainly: Inhibition of self-renewal of human HuH7 cells assessed as EpCAM negative fraction at 5 uM after 20 mins by propidium iodide staining-based flow cytometric analysis (reference value: 8.8 %). The assay is classed as functional. On the set-up: scale not given: the % may be the effect or the level left.

In the case of `O=[N+]([O-])c1ccc(Nc2ccccc2-c2ccccc2)c2nonc12`, the inhibition at 50 µM in the assay with Huh-7 [1] lay within 30 to 40%.

Compound `CC1(C)CC[C@]2(C(=O)O)CC[C@]3(C)C(=CC[C@@H]4[C@@]5(C)C[C@@H](O)[C@H](O)C(C)(C)[C@@H]5CC[C@]43C)[C@@H]2C1` [MASLINIC ACID] yielded an IC50 in assay [2] of 22700 nM.

As to `CO[C@@H]1C[C@H](O[C@H]2CC[C@@]3(C)[C@H](CC[C@@H]4[C@@H]3CC[C@]3(C)[C@@H](C5=CC(=O)OC5)CC[C@]43O)C2)O[C@@H](C)[C@@H]1O`, the half-maximal inhibitory concentration (IC50) was 93 nM in assay [2], 140 nM in the assay on DU-145, 58 nM with HCT-116 and 5000 nM in the assay on HEK293. Also, the inhibition entry in the assay filed under Homo sapiens and with Huh-7 [3] was “Dose-dependent effect” in each case. Moreover, the Activity in the assay on Huh-7 [4] came to 80.1%; with Huh-7 [5] it was 72.9%; in the assay on Huh-7 [6], 19.9%; with Huh-7 [7], 27.1%.

With `CO[C@H]1C[C@@H](O[C@H]2CC[C@@]3(C)[C@H](CC[C@@H]4[C@@H]3CC[C@]3(C)[C@@H](C5=CC(=O)OC5)CC[C@]43O)C2)O[C@@H](C)[C@@H]1O`, the half-maximal inhibitory concentration (IC50) in [2] is 450 nM.

`C=C(C)[C@@H]1CC[C@]2(C(=O)OC)CC[C@]3(C(=O)O)[C@H](CC[C@@H]4[C@@]5(C)CC[C@H](O)C(C)(C)[C@@H]5CC[C@]43C)[C@@H]12` registered an IC50 in [2] of 19500 nM.

`C[C@]12CC[C@H](O)C[C@H]1CC[C@@H]1[C@@H]2CC[C@]2(C)[C@@H](C3=CC(=O)OC3)CC[C@]12O` [DIGITOXIGENIN]: in [2], 1700 nM corresponded to half-maximal inhibition (IC50).

With `CO[C@H]1C[C@H](O[C@H]2CC[C@@]3(C)[C@H](CC[C@@H]4[C@@H]3CC[C@]3(C)[C@@H](C5=CC(=O)OC5)CC[C@]43O)C2)O[C@H](C)[C@H]1O`, in assay [2], half-maximal inhibition (IC50) was put at 98 nM.

The inhibition is the share of the control response that was lost under treatment. For orientation: IC50 means the midpoint of a concentration-inhibition curve.
